Results taken from US9440982B2 (Eolas Therapeutics, Inc., priority 2012, dated 2016).

Target: T1, CYP3A4 (Homo sapiens, UniProt P08684)
T1 construct: pre-incubated with human liver microsomes and NADPH; from tissue; host or cells: human liver microsomes
Assay: Cytochrome P450 inhibition assay (midazolam hydroxylation)
Assay type: in vitro ADME
Conditions: human, human liver microsomes, probe midazolam (hydroxylation to 1′-hydroxymidazolam), 10 μM test compound, midazolam at approximately its Km
Outline: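 Human liver microsomes; CYP3A4 activity as midazolam 1′-hydroxylation with substrate near Km, with or without 10 μM test compound, read as percent inhibition. For time-dependent inhibition, parallel samples were preincubated 30 min with NADPH before substrate, and percent inhibition compared with non-preincubated samples.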

T1 sequence (P08684 whole entry): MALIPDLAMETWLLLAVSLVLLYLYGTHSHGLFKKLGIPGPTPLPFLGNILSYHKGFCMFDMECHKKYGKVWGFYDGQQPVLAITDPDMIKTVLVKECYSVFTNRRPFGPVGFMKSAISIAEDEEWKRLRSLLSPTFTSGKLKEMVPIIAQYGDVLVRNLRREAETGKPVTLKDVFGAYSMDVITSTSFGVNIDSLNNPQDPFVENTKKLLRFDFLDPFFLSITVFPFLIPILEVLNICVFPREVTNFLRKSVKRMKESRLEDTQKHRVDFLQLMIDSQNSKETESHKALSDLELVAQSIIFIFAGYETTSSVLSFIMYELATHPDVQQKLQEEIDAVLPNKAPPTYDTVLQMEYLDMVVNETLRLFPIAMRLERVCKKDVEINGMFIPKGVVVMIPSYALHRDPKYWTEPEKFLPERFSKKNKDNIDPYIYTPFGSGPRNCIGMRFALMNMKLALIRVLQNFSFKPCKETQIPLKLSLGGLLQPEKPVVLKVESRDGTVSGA

| inhibition at 10 µM | SMILES |
| --- | --- |
| 98% | Cc1ccc(-n2cc(C)nn2)c(C(=O)N2CCC[C@@H](C)[C@H]2CNc2ccc(C(F)(F)F)cn2)c1 [Example A113, ((2S,3R)-3-Methyl-2-(((5-(trifluoromethyl)pyridin-2-yl)amino)methyl)piperidin-1-yl)(5-methyl-2-(4-methyl-1H-1,2,3-triazol-1-yl)phenyl)methanone] |
| 95% | Cc1ccc(-c2ccc(C)cc2C(=O)N2CCC[C@@H](C)[C@H]2CNc2ccc(C(F)(F)F)cn2)nc1 [Example A118, ((2S,3R)-3-Methyl-2-(((5-(trifluoromethyl)pyridin-2-yl)amino)methyl)piperidin-1-yl)(5-methyl-2-(5-methylpyridin-2-yl)phenyl)methanone] |
| 84% | Cc1ccc(-n2ccc(C)n2)c(C(=O)N2CCC[C@@H](C)[C@H]2CNc2ncc(C#N)cn2)c1 [Example A131, 2-((((2S,3R)-3-Methyl-1-(5-methyl-2-(3-methyl-1H-pyrazol-1-yl)benzoyl)piperidin-2-yl)methyl)amino)pyrimidine-5-carbonitrile] |
| 66% | Cc1ccc(-n2nccn2)c(C(=O)N2CCC[C@@H](C)[C@H]2CNc2ncc(Cl)cn2)c1 [Example A147, ((2S,3R)-2-(((5-Chloropyrimidin-2-yl)amino)methyl)-3-methylpiperidin-1-yl)(5-methyl-2-(2H-1,2,3-triazol-2-yl)phenyl)methanone] |
| 86% | Cc1ccc(-c2ccccn2)c(C(=O)N2CCC[C@@H](C)[C@H]2CNc2nnc(C(F)(F)F)s2)c1 [Example A151, ((2S,3R)-3-Methyl-2-(((5-(trifluoromethyl)-1,3,4-thiadiazol-2-yl)amino)methyl)piperidin-1-yl)(5-methyl-2-(pyridin-2-yl)phenyl)methanone] |
| 90% | Cc1ccc(-n2nccn2)c(C(=O)N2CCC[C@@H](C)[C@H]2CNc2nccc(C(F)(F)F)n2)c1 [Example A163, ((2S,3R)-3-Methyl-2-(((4-(trifluoromethyl)pyrimidin-2-yl)amino)methyl)piperidin-1-yl)(5-methyl-2-(2H-1,2,3-triazol-2-yl)phenyl)methanone] |
| 42% | Cc1ccc(-c2ccccn2)c(C(=O)N2CCC[C@@H](C)[C@H]2CNc2ccc(C(F)(F)F)nn2)n1 [Example A165, ((2S,3R)-3-methyl-2-(((6-(trifluoromethyl)pyridazin-3-yl)amino)methyl)piperidin-1-yl)(6′-methyl-[2,3′-bipyridin]-2′-yl)methanone] |
| 66% | Cc1ccc(-n2cccn2)c(C(=O)N2CCC[C@@H](C)[C@H]2CNc2ncc(F)cn2)c1 [Example A170, ((2S,3R)-2-(((5-Fluoropyrimidin-2-yl)amino)methyl)-3-methylpiperidin-1-yl)(5-methyl-2-(1H-pyrazol-1-yl)phenyl)methanone] |
| 76% | Cc1ccc(-n2nccn2)c(C(=O)N2CCC[C@@H](C)[C@H]2CNc2ncc(F)cc2F)c1 [Example A172, ((2S,3R)-2-(((3,5-Difluoropyridin-2-yl)amino)methyl)-3-methylpiperidin-1-yl)(5-methyl-2-(2H-1,2,3-triazol-2-yl)phenyl)methanone] |
| 49% | Cc1ccc(-c2ncccn2)c(C(=O)N2CCC[C@@H](C)[C@H]2CNc2ccc(C(F)(F)F)cn2)n1 [Example A183, ((2S,3R)-3-Methyl-2-(((5-(trifluoromethyl)pyridin-2-yl)amino)methyl)piperidin-1-yl)(6-methyl-3-(pyrimidin-2-yl)pyridin-2-yl)methanone] |
| 51% | Cc1ccc(-c2cccnn2)c(C(=O)N2CCC[C@@H](C)[C@H]2CNc2ncc(C(F)(F)F)cn2)c1 [Example A198, ((2S,3R)-3-Methyl-2-(((5-(trifluoromethyl)pyrimidin-2-yl)amino)methyl)piperidin-1-yl)(5-methyl-2-(pyridazin-3-yl)phenyl)methanone] |
| 44% | C[C@@H]1CCCN(C(=O)c2cc(F)ccc2-n2nccn2)[C@@H]1CNc1ncc(C(F)(F)F)cn1 [Example A207, (5-Fluoro-2-(2H-1,2,3-triazol-2-yl)phenyl)((2S,3R)-3-methyl-2-(((5-(trifluoromethyl)pyrimidin-2-yl)amino)methyl)piperidin-1-yl)methanone] |
| 60% | Cc1ccc(-n2nccn2)c(C(=O)N2CCC(F)(F)C[C@H]2CNc2ncc(C(F)(F)F)cn2)c1 [Example A211, (S)-(4,4-Difluoro-2-(((5-(trifluoromethyl)pyrimidin-2-yl)amino)methyl)piperidin-1-yl)(5-methyl-2-(2H-1,2,3-triazol-2-yl)phenyl)methanone] |
| 69% | Cc1ccc(-n2nccn2)c(C(=O)N2CCC[C@@H](C)[C@H]2CNc2ncc3c(C)cccc3n2)c1 [Example A214, ((2S,3R)-3-Methyl-2-(((5-methylquinazolin-2-yl)amino)methyl)piperidin-1-yl)(5-methyl-2-(2H-1,2,3-triazol-2-yl)phenyl)methanone] |

More lines, now with the values behind:

| SMILES | inhibition at 10 µM |
| --- | --- |
| Cc1ccc(-n2nccn2)c(C(=O)N2CCC[C@@H](C)[C@H]2CNc2nc(C)cs2)c1 [Example A124, ((2S,3R)-3-Methyl-2-(((4-methylthiazol-2-yl)amino)methyl)piperidin-1-yl)(5-methyl-2-(2H-1,2,3-triazol-2-yl)phenyl)methanone] | 55% |
| COc1ccc(NC[C@@H]2[C@H](C)CCCN2C(=O)c2cc(C)ccc2-n2nccn2)nc1 [Example A126, ((2S,3R)-2-(((5-Methoxypyridin-2-yl)amino)methyl)-3-methylpiperidin-1-yl)(5-methyl-2-(2H-1,2,3-triazol-2-yl)phenyl)methanone] | 56% |
| Cc1ccc(-c2ccccn2)c(C(=O)N2CCC[C@@H](C)[C@H]2CNc2nc3cc(F)ccc3o2)c1 [Example A128, ((2S,3R)-2-(((5-Fluorobenzo[d]oxazol-2-yl)amino)methyl)-3-methylpiperidin-1-yl)(5-methyl-2-(pyridin-2-yl)phenyl)methanone] | 88% |
| Cc1ccc(-n2nccn2)c(C(=O)N2CCC[C@@H](C)[C@H]2CNc2ccc(C3CC3)cn2)c1 [Example A136, ((2S,3R)-2-(((5-Cyclopropylpyridin-2-yl)amino)methyl)-3-methylpiperidin-1-yl)(5-methyl-2-(2H-1,2,3-triazol-2-yl)phenyl)methanone] | 91% |
| Cc1ccc(-n2ncc(C)n2)c(C(=O)N2CCC[C@@H](C)[C@H]2CNc2nc3cc(F)ccc3o2)c1 [Example A141, ((2S,3R)-2-(((5-Fluorobenzo[d]oxazol-2-yl)amino)methyl)-3-methylpiperidin-1-yl)(5-methyl-2-(4-methyl-2H-1,2,3-triazol-2-yl)phenyl)methanone] | 72% |
| Cc1ccc(-n2cccn2)c(C(=O)N2CCC[C@@H](C)[C@H]2CNc2ccc(C#N)cn2)c1 [Example A155, 6-((((2S,3R)-3-Methyl-1-(5-methyl-2-(1H-pyrazol-1-yl)benzoyl)piperidin-2-yl)methyl)amino)nicotinonitrile] | 72% |
| Cc1ccc(-n2cccn2)c(C(=O)N2CCC[C@@H](C)[C@H]2CNc2ccc(C(F)(F)F)nn2)n1 [Example A164, ((2S,3R)-3-Methyl-2-(((6-(trifluoromethyl)pyridazin-3-yl)amino)methyl)piperidin-1-yl)(6-methyl-3-(1H-pyrazol-1-yl)pyridin-2-yl)methanone] | 37% |
| Cc1ccc(-n2nccn2)c(C(=O)N2CCC[C@@H](C)[C@H]2CNc2ncc(Cl)cc2F)c1 [Example A173, ((2S,3R)-2-(((5-Chloro-3-fluoropyridin-2-yl)amino)methyl)-3-methylpiperidin-1-yl)(5-methyl-2-(2H-1,2,3-triazol-2-yl)phenyl)methanone] | 81% |
| Cc1ccc(-n2nccn2)c(C(=O)N2CCC[C@@H](C)[C@H]2CNc2ccc(Cl)cn2)n1 [Example A178, ((2S,3R)-2-(((5-Chloropyridin-2-yl)amino)methyl)-3-methylpiperidin-1-yl)(6-methyl-3-(2H-1,2,3-triazol-2-yl)pyridin-2-yl)methanone] | 64% |
| Cc1ccc(-n2nccn2)c(C(=O)N2CCC[C@@H](C)[C@H]2CNc2nnc(C(F)(F)F)s2)n1 [Example A191, ((2S,3R)-3-Methyl-2-(((5-(trifluoromethyl)-1,3,4-thiadiazol-2-yl)amino)methyl)piperidin-1-yl)(6-methyl-3-(2H-1,2,3-triazol-2-yl)pyridin-2-yl)methanone] | 44% |
| Cc1ccc(-n2nccn2)c(C(=O)N2CCC[C@@H](C)[C@H]2CNc2ncc(C#N)cc2F)n1 [Example A193, 5-Fluoro-6-((((2S,3R)-3-methyl-1-(6-methyl-3-(2H-1,2,3-triazol-2-yl)picolinoyl)piperidin-2-yl)methyl)amino)nicotinonitrile] | 45% |
| Cc1ccc(NC[C@@H]2[C@H](C)CCCN2C(=O)c2nc(C)ccc2-n2nccn2)nc1 [Example A196, ((2S,3R)-3-Methyl-2-(((5-methylpyridin-2-yl)amino)methyl)piperidin-1-yl)(6-methyl-3-(2H-1,2,3-triazol-2-yl)pyridin-2-yl)methanone] | 50% |
| Cc1ccc(-n2nccn2)c(C(=O)N2CCC(F)(F)C[C@H]2CNc2ccc(Cl)cn2)c1 [Example A210, (S)-(2-(((5-Chloropyridin-2-yl)amino)methyl)-4,4-difluoropiperidin-1-yl)(5-methyl-2-(2H-1,2,3-triazol-2-yl)phenyl)methanone] | 76% |
| Cc1ccc(-n2nccn2)c(C(=O)N2CCC[C@@H](C)[C@H]2CNc2cc(C)nc3nc(C)nn23)c1 [Example A213, ((2S,3R)-2-(((2,5-Dimethyl-[1,2,4]triazolo[1,5-a]pyrimidin-7-yl)amino)methyl)-3-methylpiperidin-1-yl)(5-methyl-2-(2H-1,2,3-triazol-2-yl)phenyl)methanone] | 19% |
